Reference: patent publication US9284283B2, “Macrocyclic compounds for modulating IL-17” (ENSEMBLE THERAPEUTICS CORPORATION, priority 2012, dated 2016)

Legend:
[1] = target: T1, recombinant human IL17a (binding to its receptor IL17R) (Homo sapiens, UniProt Q16552); assay: IL-17 competition ELISA I (IL17a coated, IL17R/Fc binding)
T1 construct: purchased R&D Systems 317-ILB (IL17a); 177-IR (IL17R/Fc)
T1 sequence (Q16552 20-155 limits assumed): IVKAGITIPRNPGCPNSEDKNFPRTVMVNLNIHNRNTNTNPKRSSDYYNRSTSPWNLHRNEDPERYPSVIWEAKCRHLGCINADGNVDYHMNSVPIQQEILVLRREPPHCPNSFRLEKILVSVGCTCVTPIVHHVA
Summary of the method: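 Plates coated with 20 nM recombinant human IL17a received compound dilutions and 12 nM IL17R/Fc (final) for 30 min at room temperature. Bound receptor was detected with HRP anti-human Fc and TMB, read at 450 nm. IC50 came from a 4-parameter logistic fit between no-competitor and blank controls.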

[2] = tested on: IL-17-induced GROα secretion from HT-29 cells; assay: HT-29 cellular assay (IL-17-induced GROα secretion); type: cell-based; details: Homo sapiens
Description: To test the ability of a compound of the invention to neutralize or antagonize IL-17 bioactivity, the following cell-based assay was used. IL-17 can stimulate epithelial cells and other cells to secrete GROα. The ability of a compound of the invention to neutralize IL-17-induced GROα secretion from the human colorectal adenocarcinoma epithelial cell line HT-29 is tested in this assay.
HT-29 cells (human colorectal adenocarcinoma epithelial cells, ATCC #HTB-38), were maintained in culture/assay medium in tissue culture-treated flasks using standard techniques. HT-29 cells were grown in tissue culture flasks until they were 50-80% confluent on the day before the assay. The day before the assay, the cells were detached from the culture flasks with trypsin+EDTA. The trypsin was inactivated with complete assay medium. HT-29 cells were then centrifuged at 500×g for 5 minutes at room temperature. The cell pellet was then re-suspended in Defined Keratinocyte SFM (Invitrogen #10766019)+10% FCS and 50,000 HT-29 cells (in 100 μl) were added to each treatment well of the 96-well plates. The 96-well plates were placed in a tissue culture incubator (37° C., 5% CO2) overnight. The next day, the media was removed from the cells and the cells were washed twice with Defined Keratinocyte SFM. In a separate 96-well plate, compounds to be tested were serially diluted in Defined Keratinocyte SFM and run in triplicate in 100 μL total volume. To these compound samples were then added 100 μL of human IL-17 at a concentration of 20 ng/mL in Defined Keratinocyte SFM for serum-free assays. 150 μL of the compound/IL-17 mixture was then added to the cells from which the media has previously been removed. The cells were grown for 48 hours in Defined Keratinocyte SFM in a tissue culture incubator (37° C., 5% CO2).
At the end of the incubation, the plates are centrifuged (500×g for 5 minutes at room temperature), and the cell culture media is transferred to polypropylene 96-well plates. The supernatant was used neat in the ELISA. GROα levels are measured with a GROα sandwich ELISA (R+D Systems DuoSet #DY275E), as per the manufacturer's instructions. The ELISA plates were previously coated with mAb 275 (R+D Systems) at 4 μg/mL. GROα is detected using biotinylated goat anti-human GROα (R+D Systems BAF275) at 200 ng/mL using TMB as a substrate. At the end of the ELISA reactions, plates are read at 450 nm on a microplate reader and compared to a standard calibration curve.

SMILES	IC50 [1] [nM]	IC50 [2] [nM]
O=C1CNC(=O)[C@@H](Cc2ccc(NC(=O)[C@@H](NC(=O)Cc3ccccc3)C3CCCCC3)cc2)NC(=O)CC2(CCCC2)CC(=O)NCCCCCN1 [Compound 186]	< 100	
O=C1CNC(=O)[C@@H](Cc2ccc(NC(=O)[C@H](Cc3ccc(Cl)cc3Cl)NC(=O)Cc3ccccc3)cc2)NC(=O)CC2(CCCC2)CC(=O)NCCCCCN1 [Compound 185]	< 100	1000 to 10000
COC(=O)[C@@H]1CCCCNC(=O)CNC(=O)[C@@H](Cc2ccc(NC(=O)[C@H](Cc3ccccc3Cl)NC(=O)Cc3ccccc3)cc2)NC(=O)CC2(CCCC2)CC(=O)N1 [Compound 143]	< 100	< 1000
O=C1CNC(=O)[C@@H](Cc2ccc(NC(=O)[C@H](Cc3ccc(Cl)cc3Cl)NC(=O)Cc3ccc(O)cc3)cc2)NC(=O)CC2(CCCC2)CC(=O)NCCCCCN1 [Compound 191]	< 100	< 1000
O=C1CNC(=O)[C@@H](Cc2ccc(NC(=O)[C@H](Cc3ccccc3Cl)NC(=O)Cc3ccccc3)cc2)NC(=O)CC2(CCCC2)CC(=O)NCCCCCN1 [Compound 159]	< 100	< 1000
O=C1CNC(=O)[C@@H](Cc2ccc(NC(=O)[C@H](Cc3ccccc3Cl)NC(=O)c3cccnc3)cc2)NC(=O)CC2(CCCC2)CC(=O)NCCCCCN1 [Compound 194]	< 100	
COC(=O)[C@@H]1CCCCNC(=O)CNC(=O)[C@@H](Cc2ccc(NC(=O)[C@H](Cc3ccccc3Cl)NC(=O)c3ccccc3)cc2)NC(=O)CC2(CCCC2)CC(=O)N1 [Compound 144]	< 100	1000 to 10000
COC(=O)[C@@H]1CCCCNC(=O)CCCNC(=O)[C@@H](Cc2ccc(NC(=O)[C@H](Cc3ccccc3F)NC(=O)Cc3ccccc3)cc2)NC(=O)CC2(CCCC2)CC(=O)N1 [Compound 106]	100 to 1000	> 10000
O=C1CNC(=O)[C@@H](Cc2ccc(NC(=O)[C@H](Cc3ccccc3Cl)NC(=O)Cc3ccccn3)cc2)NC(=O)CC2(CCCC2)CC(=O)NCCCCCN1 [Compound 226]	< 100	
